Laboratory results from article PMC6392468, “Inhibition of lipid droplet formation by Ser/Thr protein phosphatase PPM1D inhibitor, SL-176” (PLoS ONE, 2019).

Biological target: T1, PPM1D (Mus musculus, UniProt Q9QZ67)
T1 construct: His-mousePPM1D (1–413)
T1 sequence (Q9QZ67 1-413): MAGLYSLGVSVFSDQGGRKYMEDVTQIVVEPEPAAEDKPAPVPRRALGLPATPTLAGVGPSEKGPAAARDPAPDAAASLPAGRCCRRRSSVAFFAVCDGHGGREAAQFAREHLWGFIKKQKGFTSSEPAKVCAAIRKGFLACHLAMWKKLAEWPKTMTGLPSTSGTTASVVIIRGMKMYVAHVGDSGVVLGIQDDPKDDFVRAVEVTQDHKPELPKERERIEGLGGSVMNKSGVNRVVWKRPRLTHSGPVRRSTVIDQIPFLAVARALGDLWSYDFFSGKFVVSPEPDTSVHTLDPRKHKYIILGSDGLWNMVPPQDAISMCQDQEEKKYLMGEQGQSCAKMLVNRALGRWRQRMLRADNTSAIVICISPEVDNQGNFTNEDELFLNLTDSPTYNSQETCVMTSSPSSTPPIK
Assay: in vitro phosphatase assay, released free phosphate by BIOMOL GREEN, p53-derived peptide substrate
Type: biochemical

CC[Si](CC)(CC)O[C@@H]1CCC[C@@H]2[C@@H]1C[C@H](O[Si](C)(C)C(C)(C)C)C[C@@]2(C)C(=O)O [SL-176]
IC50: 112 ± 12 nM
